Results taken from ChEMBL document CHEMBL2034939, “Structure-based virtual screening of novel inhibitors of the uridyltransferase activity of Xanthomonas oryzae pv. oryzae GlmU” (Eur J Med Chem, 2012).
≈ marks a conversion by molar mass, not a printed value.

Tests used:
[1] = Inhibition of Xanthomonas oryzae pv. oryzae KS-1-21 uridyltransferase domain of GlmU activity by ion-pair reverse-phase HPLC analysis
[2] = system: Xanthomonas oryzae pv. oryzae; experiment: Antibacterial activity against Xanthomonas oryzae pv. oryzae KS-1-21 after 36 to 48 hrs by broth microdilution assay; type: functional
[3] = Noncompetitive inhibition of Xanthomonas oryzae pv. Oryzae KS-1-21 GlmU using 0.25 to 0.05 mM GlcNAc-1-p and 500 uM UTP by Lineweaver-Burk plot analysis
[4] = Noncompetitive inhibition of Xanthomonas oryzae pv. Oryzae KS-1-21 GlmU using varying concentration of UTP and 500 uM GlcNAc-1-p by Lineweaver-Burk plot analysis
[5] = Uncompetitive inhibition of Xanthomonas oryzae pv. Oryzae KS-1-21 GlmU using 0.25 to 0.05 mM GlcNAc-1-p and 500 uM UTP by Lineweaver-Burk plot analysis
[6] = Competitive inhibition of Xanthomonas oryzae pv. Oryzae KS-1-21 GlmU using varying concentration of UTP and 500 uM GlcNAc-1-p by Lineweaver-Burk plot analysis
[7] = Competitive inhibition of Xanthomonas oryzae pv. Oryzae KS-1-21 GlmU using 0.25 to 0.05 mM GlcNAc-1-p and 500 uM UTP by Lineweaver-Burk plot analysis
[8] = Uncompetitive inhibition of Xanthomonas oryzae pv. Oryzae KS-1-21 GlmU using varying concentration of UTP and 500 uM GlcNAc-1-p by Lineweaver-Burk plot analysis

| SMILES | IC50 [1] [µM] | MIC [2] [mg/L] | also measured |
| --- | --- | --- | --- |
| CCN(CC)c1ccc(/C=C(\NC(=O)c2ccccc2)C(=O)N/N=C/c2cc(O)ccc2Br)cc1 | 62.5 | > 500 | – |
| CCCCCOc1ccc(/C=N/NC(=O)c2nnn(-c3nonc3N)c2CN2CCCCCC2)cc1 | 87.4 | > 500 | – |
| Cc1cc(OCC(=O)NNC(=O)c2ccc(O)cc2O)cc(C)c1Cl | 23.2 | 420 (≈ 1150 µM) | Ki [3]: 19.4 µM; Ki [4]: 8.89 µM |
| O=C(CCCCC(=O)NNC(=O)COc1ccc2ccccc2c1)NNC(=O)COc1ccc2ccccc2c1 | 14.2 | 302 (≈ 557 µM) | Ki [5]: 8.23 µM; Ki [6]: 8.1 µM |
| CCOc1ccc(C(=O)NCCCCCCCNC(=O)c2ccc(OCC)cc2)cc1 | 76.5 | > 500 | – |
| Cc1ccc(OCC(=O)Nc2ccccc2C(=O)NC2CCCCC2)cc1 | 84.2 | > 500 | – |
| COc1ccc(C(=O)/C=C/c2cn(CC(O)CN3CCCCC3)c3ccccc23)cc1OC (configuration not stated) | > 100 | 82 (≈ 183 µM) | – |
| O=c1cc(-c2ccc(O)c(O)c2)oc2cc(O)cc(O)c12 [LUTEOLIN] | 0.81 | 186 (≈ 651 µM) | Ki [7]: 0.44 µM; Ki [8]: 0.99 µM |
